This passage reports Ki results from patent US8999981B2, “3-amido-pyrrolo[3,4-C]pyrazole-5(1H, 4H,6H) carbaldehyde derivatives” (Pfizer Inc., priority 2007, dated 2015).

The assay deals with Protein Kinase C beta 2 (PKCβII) (Homo sapiens (Human), UniProt P05771). The experiment in a line: PKCβII coupled PK/LDH spectrophotometric kinase assay. It counts as biochemical. The settings on record: apparent Ki, ATP-competitive model (Morrison equation); 0.1 mM ATP, 30° C.; read-out: PKCb Ki. As for the experimental part:
This transfer is coupled to the oxidation of β-NADH through the activities of Pyruvate Kinase (PK) and Lactate Dehydrogenase (LDH). β-NADH conversion to NAD+ is monitored by the decrease in absorbance at 340 nm (e=6.22 cm^−1 mM^−1) using a Molecular Devices SPECTRA max PLUS spectrophotometer.
A typical assay was carried out on a 96-well, clear microtiter plate in a Molecular Devices spectrophotometer for 20 minutes at 30° C. in 0.1 mL of assay buffer containing 50 mM HEPES, pH 7.4, 5 nM PKC, 23 units of pyruvate kinase, 33 units of lactate dehydrogenase, 0.15 mM peptide, 0.1 mM ATP, 1 mM DTT, 4 mM PEP, 8 mM MgCl2, 0.3 mM NADH, 60 mM CaCl2, 10 mg/mL PS, 50 ng/mL PMA, 7.5% DMSO and from about 10,000 nM to 0.169 nM compound inhibitor. Stock solutions of 3-sn-phosphatidyl-L-serine (PS) and phorbol-12-myristate-13-acetate (PMA) were sonicated for 30 seconds just prior to addition to assay buffer and assays were initiated by the addition of 100 μM ATP.
Enzyme turnover values (kcat) were calculated according to […], where [E] is the total enzyme concentration. Enzyme inhibition constants (apparent K values) were determined by fitting initial velocities at variable inhibitor concentrations to a model for ATP competitive inhibition based on the Morrison equation). Morrison, J. F., Biochim. Biophys Acta 185: 269-286 (1969).

Each structure is given as a SMILES string.

Protein Kinase C beta 2 (PKCβII), sequence (P05771 other isoform, or with tags, fused parts or gaps): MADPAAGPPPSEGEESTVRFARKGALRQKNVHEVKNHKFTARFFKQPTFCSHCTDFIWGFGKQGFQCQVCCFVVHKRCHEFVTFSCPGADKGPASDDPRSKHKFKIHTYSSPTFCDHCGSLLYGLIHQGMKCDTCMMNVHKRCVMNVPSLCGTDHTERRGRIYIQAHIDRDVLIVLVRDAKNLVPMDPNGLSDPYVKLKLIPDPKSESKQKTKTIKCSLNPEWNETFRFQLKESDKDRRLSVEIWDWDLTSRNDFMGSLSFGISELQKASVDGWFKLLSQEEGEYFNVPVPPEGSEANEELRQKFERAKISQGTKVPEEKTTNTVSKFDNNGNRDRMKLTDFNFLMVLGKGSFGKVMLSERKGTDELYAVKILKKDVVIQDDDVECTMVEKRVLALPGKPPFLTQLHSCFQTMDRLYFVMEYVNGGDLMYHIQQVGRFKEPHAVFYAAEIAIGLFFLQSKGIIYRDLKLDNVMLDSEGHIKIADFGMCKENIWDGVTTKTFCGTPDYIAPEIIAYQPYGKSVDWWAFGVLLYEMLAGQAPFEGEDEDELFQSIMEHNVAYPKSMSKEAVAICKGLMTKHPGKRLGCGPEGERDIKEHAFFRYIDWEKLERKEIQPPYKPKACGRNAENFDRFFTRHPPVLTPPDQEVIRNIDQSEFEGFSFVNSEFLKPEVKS

As to `CCc1nc(C)c(C(=O)Nc2n[nH]c3c2CN(C(=O)N2C[C@@H](C)N(CC4CCOCC4)C[C@@H]2C)C3(C)C)o1` [Example F1, N-(5-{[(2S,5R)-2,5-dimethyl-4-(tetrahydro-2H-pyran-4-ylmethyl)piperazin-1-yl]carbonyl}-6,6-dimethyl-1,4,5,6-tetrahydropyrrolo[3,4-c]pyrazol-3-yl)-2-ethyl-4-methyl-1,3-oxazole-5-carboxamide], the Ki amounted to 22.4 nM.
Next, `Cc1cc(C)nc(C(=O)Nc2n[nH]c3c2CN(C(=O)N2C[C@@H]4CCCN4C[C@@H]2C)C3(C)C)c1` [Example A51]: 20.9 nM; `C[C@H]1CN2CCC[C@H]2CN1C(=O)N1Cc2c(NC(=O)c3nc(Cl)c(Cl)s3)n[nH]c2C1(C)C` [Example A74]: 10.4 nM.
Next, `C[C@@H]1CN(C(=O)N2Cc3c(NC(=O)c4ccccn4)n[nH]c3C2(C)C)[C@@H](C)CN1Cc1cocn1` [Example A148]: 48.3 nM.
For `CCC[C@H]1CN2CCC[C@H]2CN1C(=O)N1Cc2c(NC(=O)c3ccccc3)n[nH]c2C1(C)C` [Example A28] the value was 96.1 nM; for `CC1(C)c2[nH]nc(NC(=O)c3cccc(Cl)c3)c2CN1C(=O)N1CCN2CCCC2C1` (centres unmarked) [Example A22], 28.9 nM; for `C[C@@H]1CN(C(=O)N2Cc3c(NC(=O)c4ccc(Cl)cn4)n[nH]c3C2(C)C)[C@@H](C)CN1C1CCOCC1` [Example F56], under 10 nM.
As to `C[C@@H]1CN(C(=O)N2Cc3c(NC(=O)c4ccncn4)n[nH]c3C2(C)C)[C@@H](C)CN1C1CCOCC1` [Example F53], the Ki turned out to be 24 nM.
As for `CCc1ocnc1C(=O)Nc1n[nH]c2c1CN(C(=O)N1C[C@@H](C)N(C)C[C@@H]1C)C2(C)C` [Example C7], the Ki is 66.4 nM.
Consider `CC1(C)c2[nH]nc(NC(=O)c3ccccn3)c2CN1C(=O)C1(F)CCN(C2CCOCC2)CC1` [Example B2, Pyridine-2-carboxylic acid {5-[4-fluoro-1-(tetrahydro-pyran-4-yl)-piperidine-4-carbonyl]-6,6-dimethyl-1,4,5,6-tetrahydro-pyrrolo[3,4-c]pyrazol-3-yl}-amide], for which the Ki stood at 89.8 nM.
As to `C[C@H]1CN2CCC[C@H]2CN1C(=O)N1Cc2c(NC(=O)c3c(F)cccc3C(F)(F)F)n[nH]c2C1(C)C` [Example A37], the Ki came to 155 nM.
Consider `C[C@H]1CN2CCC[C@H]2CN1C(=O)N1Cc2c(NC(=O)c3ccc(Cl)cn3)n[nH]c2C1(C)C` [Example A67], for which the Ki stood at 24.3 nM.
Regarding `CCN1C[C@H](C)N(C(=O)N2Cc3c(NC(=O)c4ccccn4)n[nH]c3C2(C)C)C[C@H]1C` [Example A95], the Ki is 9.11 nM.
Next, `CCc1cc(C(=O)Nc2n[nH]c3c2CN(C(=O)N2C[C@@H](C)N(CC4CCOCC4)C[C@@H]2C)C3(C)C)no1` [Example F19]: 26.5 nM; `Cc1cc(C(=O)Nc2n[nH]c3c2CN(C(=O)N2C[C@@H](C)N(CC4CCOCC4)C[C@@H]2C)C3(C)C)n(C)n1` [Example F12]: 33 nM.
For `C[C@H]1CN2CCC[C@H]2CN1C(=O)N1Cc2c(NC(=O)c3cc(C(C)(C)C)nn3C)n[nH]c2C1(C)C` [Example E10], the Ki was found to be 10.6 nM.
With `C[C@@H]1CN(C(=O)N2Cc3c(NC(=O)c4ccn(C)n4)n[nH]c3C2(C)C)[C@@H](C)CN1CC1CCOCC1` [Example F16], the Ki stood at 25.8 nM.
Consider `Cn1ccnc1C(=O)Nc1n[nH]c2c1CN(C(=O)N1C[C@@H]3CCCN3C[C@@H]1Cc1ccccc1)C2(C)C` [Example A26], for which the Ki worked out at 69.3 nM.
As to `CC1(C)c2[nH]nc(NC(=O)c3ccc4ccccc4n3)c2CN1C(=O)N1CCN2CCCC2C1` (centres unmarked) [Example A11], the Ki turned out to be 73.9 nM.
Consider `COc1ccc(C(=O)Nc2n[nH]c3c2CN(C(=O)N2C[C@@H](C)N(C4CCOCC4)C[C@@H]2C)C3(C)C)nc1` [Example F55], for which the Ki was under 10 nM.
Next, `CCC1(C)c2[nH]nc(NC(=O)c3ncc(F)cc3F)c2CN1C(=O)C1C[C@@H]2CCCN2C[C@@H]1C` (some centres unmarked) [Example A86]: 74.1 nM; `CC[C@H](C)[C@H]1CN2C[C@H](O)C[C@H]2CN1C(=O)N1Cc2c(NC(=O)c3ccccn3)n[nH]c2C1(C)C` [Example A85]: 15.2 nM; `CCC1CN(C(=O)N2Cc3c(NC(=O)c4ccccn4)n[nH]c3C2(C)C)CCN1C` (centres unmarked) [Example A79]: 79.6 nM.
Next, `C[C@H]1CN2CCC[C@H]2CN1C(=O)N1Cc2c(NC(=O)c3cc(C4CC4)on3)n[nH]c2C1(C)C` [Example E12]: 58.6 nM; `CC[C@H](C)[C@H]1CN2C[C@H](O)C[C@H]2CN1C(=O)N1Cc2c(NC(=O)c3ccccn3)n[nH]c2C1(C)C` [Example A84]: 139 nM; `CC1(C)c2[nH]nc(NC(=O)c3ccc4ccncc4n3)c2CN1C(=O)N1C[C@@H]2CCCN2C[C@@H]1Cc1ccccc1` [Example A25]: 28.8 nM.
Next, `C[C@@H]1CN(C(=O)N2Cc3c(NC(=O)c4ccccn4)n[nH]c3C2(C)C)[C@@H](C)CN1[C@@H](C)CCO` [Example A155]: 43.3 nM; `C[C@H]1CN(C)[C@@H](CCO)CN1C(=O)N1Cc2c(NC(=O)c3ccccn3)n[nH]c2C1(C)C` [Example A151]: 152 nM.
For `CC(C)c1csc(C(=O)Nc2n[nH]c3c2CN(C(=O)N2C[C@@H]4CCCN4C[C@@H]2C)C3(C)C)n1` [Example A55], the Ki amounted to 177 nM.
`C[C@H]1CN2CCC[C@H]2CN1C(=O)N1Cc2c(NC(=O)c3ccc(F)c(Cl)c3)n[nH]c2C1(C)C` [Example A49]: the Ki stood at 53.6 nM.
Next, `C[C@H]1CN2CCC[C@H]2CN1C(=O)N1Cc2c(NC(=O)c3ccc(F)c(Cl)c3)n[nH]c2C1(C)C` [Example A34]: 21.9 nM; `CC1(C)c2n[nH]c(NC(=O)c3ccccn3)c2CN1C(=O)C1(F)CCN(C2CCC2)CC1` [Example B1, Pyridine-2-carboxylic acid [5-(1-cyclobutyl-4-fluoro-piperidine-4-carbonyl)-6,6-dimethyl-1,4,5,6-tetrahydro-pyrrolo[3,4-c]pyrazol-3-yl]-amide]: 75.3 nM; `CC1CN(C(=O)N2Cc3c(NC(=O)c4ccccn4)n[nH]c3C2(C)C)C(C)CN1CCCO` (centres unmarked) [Example A99]: 19.9 nM.
Regarding `C[C@H]1CN2CCC[C@H]2CN1C(=O)N1Cc2c(NC(=O)c3cc(C4CC4)n[nH]3)n[nH]c2C1(C)C` [Example E6], the Ki amounted to 6.81 nM.
For `Cc1nc(C(=O)Nc2n[nH]c3c2CN(C(=O)N2C[C@@H](C)N(CC4CCOCC4)C[C@@H]2C)C3(C)C)c(C)o1` [Example F23] the value was 31.3 nM; for `Cc1ocnc1C(=O)Nc1n[nH]c2c1CN(C(=O)N1C[C@@H](C)N(C)C[C@@H]1C)C2(C)C` [Example C4], 45.1 nM.
Next, `COc1cc(C(=O)Nc2n[nH]c3c2CN(C(=O)N2C[C@@H]4CCCN4C[C@@H]2C)C3(C)C)ccc1Cl` [Example A48]: 68.8 nM; `CCc1ccc(C(=O)Nc2n[nH]c3c2CN(C(=O)N2C[C@@H]4CCCN4C[C@@H]2C)C3(C)C)nc1` [Example A50]: 82.1 nM; `CCc1ocnc1C(=O)Nc1n[nH]c2c1CN(C(=O)N1C[C@@H](C)N(CC3CCOCC3)C[C@@H]1C)C2(C)C` [Example F15]: 52.1 nM.
Next, `C[C@H]1CN(C)C(C)(C)CN1C(=O)N1Cc2c(NC(=O)c3ccccn3)n[nH]c2C1(C)C` [Example A129]: 18.1 nM; `C[C@H]1CN2CCC[C@H]2CN1C(=O)N1Cc2c(NC(=O)c3ccc(Br)cn3)n[nH]c2C1(C)C` [Example A91]: 20.3 nM.
